Measured values taken from patent US20260240851A1, “Treatment of Parkinson's Disease in a Patient Using a Glucocerebrosidase Activator” (BIAL - R&D Investments, S.A., priority 2023, published 2026).
Like-named read-outs stand apart in the source and are kept apart here.

Legend:
[1] = after 6 days of dosing with 60 mg, Sinemet portion
Method: This was a Phase 1, non-randomized, open-label, 2-cohort, cross-over, DDI study in healthy male and female subjects.
In Cohort 1, a single oral dose 100 mg/25 mg levodopa-carbidopa (Sinemet®) IR was administered alone on Day 1.

[2] = LTI-291-002 multiple ascending dose study: plasma and CSF pharmacokinetics; assay type: in vivo, human
Method: This study was a phase 1, randomized, double-blind, placebo-controlled, multiple ascending dose study of Compound A in 4 cohorts of middle-aged to elderly healthy participants (aged 52 to 75 years). […] A total of 39 healthy subjects were enrolled in 4 sequential cohorts. Subjects in each cohort received once-daily oral doses of 3 mg (n=7), 10 mg (n=8), 30 mg (n=8), or 60 mg (n=8) Compound A or placebo (n=8) for 14 days. Pharmacokinetic parameters were determined for each dose at Day 1, Day 7, and Day 14. Cerebrospinal fluid samples for Compound A concentrations were measured before the first dose and 4 hours after the last dose for each dose level. GluCer, glucosyl sphingosine (GluSph), and lactosyl-ceramide (LacCer) were measured in plasma, PBMCs, and CSF as biomarkers of pharmacological effects. Pharmacodynamic measurements consisted of battery of CNS (NeuroCart®) assessments including Saccadic Eye Movements, Smooth Pursuit Eye Movements, Adaptive Tracking, Body Sway, Visual Verbal Learning Test, and pharmaco-EEG.

[3] = LTI-291-004 imaging study in GBA-PD: plasma concentrations; assay type: in vivo, human; settings: Day 7, Day 14, Day 28, GBA-PD
Method: This study was a Phase 1B, randomized, double-blind, placebo-controlled, multiple oral dose study of Compound A in 14 subjects (aged 51 to 81 years) with GBA-PD. The objectives of this study were to investigate the safety, tolerability, and PK of multiple once-daily oral administration of Compound A and to explore the accompanying pharmacodynamic changes. Subjects received once-daily oral doses of 10 mg (n=6) or 60 mg (2×30 mg capsules) (n=6) Compound A or placebo (n=2) for 28 consecutive days. PK samples were measured once on Day 7 and Day 14 and 4 times after the last dose on Day 28. Plasma concentrations were summarized at each time point, and no PK parameters were estimated. The PD evaluations included fMRI measures; FDG-PET to determine the metabolic rate of glucose in specific regions of the brain; and functional outcome measures (MDS-UPDRS Part III and the MMSE). GluCer, GluSph, and LacCer and other sphingolipids were measured in PBMCs and plasma as biomarkers of pharmacological effect.

[4] = LTI-291-001: CNS (NeuroCart) assessments; assay type: in vivo, human; settings: single doses 3-90 mg, healthy subjects
Method: The pharmacodynamic evaluations consisted of a battery of CNS (NeuroCart®) assessments, including Saccadic Eye Movements, Smooth Pursuit Eye Movements, Adaptive Tracking, Body Sway, Visual Verbal Learning Test, and EEG. GluCer was measured in plasma and PBMCs as a biomarker of pharmacological effect.

[5] = 3 mg daily, dose 1, geometric mean
[6] = 3 mg daily, dose 7, geometric mean
[7] = 3 mg daily, dose 14, geometric mean
[8] = 10 mg daily, dose 1, geometric mean
[9] = 10 mg daily, dose 7, geometric mean
[10] = 10 mg daily, dose 14, geometric mean
[11] = 30 mg daily, dose 1, geometric mean
[12] = 30 mg daily, dose 7, geometric mean
[13] = 30 mg daily, dose 14, geometric mean
[14] = 60 mg daily, dose 1, geometric mean
[15] = 60 mg daily, dose 7, geometric mean
[16] = 60 mg daily, dose 14, geometric mean
[17] = human, plasma, oral, 3 mg, 3 mg daily, dose 1, geometric mean
[18] = human, plasma, oral, 3 mg, 3 mg daily, dose 7, geometric mean
[19] = human, plasma, oral, 3 mg, 3 mg daily, dose 14, geometric mean
[20] = human, plasma, oral, 10 mg, 10 mg daily, dose 1, geometric mean
[21] = human, plasma, oral, 10 mg, 10 mg daily, dose 7, geometric mean
[22] = human, plasma, oral, 10 mg, 10 mg daily, dose 14, geometric mean
[23] = human, plasma, oral, 30 mg, 30 mg daily, dose 1, geometric mean
[24] = human, plasma, oral, 30 mg, 30 mg daily, dose 7, geometric mean
[25] = human, plasma, oral, 30 mg, 30 mg daily, dose 14, geometric mean
[26] = human, plasma, oral, 60 mg, 60 mg daily, dose 1, geometric mean
[27] = human, plasma, oral, 60 mg, 60 mg daily, dose 7, geometric mean
[28] = human, plasma, oral, 60 mg, 60 mg daily, dose 14, geometric mean

## CCCCCO[C@H]1CC[C@H](NC(=O)c2cnn3c(C)cc(C)nc23)CC1 [Compound A, 5,7-dimethyl-N-((1S*,4S)-4-(pentyloxy)cyclohexyl)pyrazolo[1,5-a]pyrimidine-3-carboxamide]
[1]
  steady state concentrations of Compound A: appeared not to have been reached
[2]; [5]
  AUC0-inf/dose: 818 ng·h/mL/mg
  Cmax/dose: 29.7 ng/mL/mg
[2]; [6]
  AUC0-inf/dose: 1570 ng·h/mL/mg
  Accumulation Index: 2.45
  Cavg: 80.1 ng/mL
  Cmax/dose: 47.2 ng/mL/mg
[2]; [7]
  AUC0-inf/dose: 2520 ng·h/mL/mg
  Accumulation Index: 2.78
  Cavg: 115 ng/mL
  Cmax/dose: 51.0 ng/mL/mg
  Fluctuation: 52.9%
[2]; [8]
  AUC0-inf/dose: 613 ng·h/mL/mg
  Cmax/dose: 30.7 ng/mL/mg
[2]; [9]
  AUC0-inf/dose: 1780 ng·h/mL/mg
  Accumulation Index: 2.29
  Cavg: 322 ng/mL
  Cmax/dose: 50.5 ng/mL/mg
[2]; [10]
  AUC0-inf/dose: 1860 ng·h/mL/mg
  Accumulation Index: 2.49
  Cavg: 313 ng/mL
  Cmax/dose: 49.3 ng/mL/mg
  Fluctuation: 76.0%
[2]; [11]
  AUC0-inf/dose: 753 ng·h/mL/mg
  Cmax/dose: 29.0 ng/mL/mg
[2]; [12]
  AUC0-inf/dose: 1890 ng·h/mL/mg
  Accumulation Index: 2.11
  Cavg: 1100 ng/mL
  Cmax/dose: 53.3 ng/mL/mg
[2]; [13]
  AUC0-inf/dose: 4620 ng·h/mL/mg
  Accumulation Index: 5.22
  Cavg: 1090 ng/mL
  Cmax/dose: 50.0 ng/mL/mg
  Fluctuation: 58.1%
[2]; [14]
  AUC0-inf/dose: 655 ng·h/mL/mg
  Cmax/dose: 32.6 ng/mL/mg
[2]; [15]
  AUC0-inf/dose: 2310 ng·h/mL/mg
  Accumulation Index: 2.72
  Cavg: 2170 ng/mL
  Cmax/dose: 53.2 ng/mL/mg
[2]; [16]
  AUC0-inf/dose: 2160 ng·h/mL/mg
  Accumulation Index: 2.53
  Cavg: 2120 ng/mL
  Cmax/dose: 51.2 ng/mL/mg
  Fluctuation: 67.6%
[2]; 3 to 60 mg, after 1st, 7th and 14th dose
  total exposure (Cmax and AUC0-24) versus dose: increase in a dose proportional manner
[2]; human, CSF and plasma, oral, after the 14th daily dose, across dose levels, read-out: CSF-to-plasma concentration ratio, mean
  Kp at 4 h: 0.0122 to 0.0128
[2]; human, in vivo, oral, multiple doses, read-out: t½ after multiple doses in Trial LTI-291-002
  half-life: 25 to 35 h
[2]; [17]
  AUC(0-inf): 2450 ng·h/mL
  Cmax: 89.1 ng/mL
[2]; human, plasma, oral, 3 mg, 3 mg daily, dose 1, geometric mean, read-out: AUC0-24
  AUC(0-t): 1050 ng·h/mL
[2]; human, plasma, oral, 3 mg, 3 mg daily, dose 1, geometric mean, read-out: AUC0-last
  AUC(0-t): 1040 ng·h/mL
[2]; human, plasma, oral, 3 mg, 3 mg daily, dose 1, geometric mean, read-out: t½ (converted)
  half-life: 27.9 h
[2]; [18]
  AUC(0-inf): 4720 ng·h/mL
  Cmax: 142 ng/mL
[2]; human, plasma, oral, 3 mg, 3 mg daily, dose 7, geometric mean, read-out: AUC0-24
  AUC(0-t): 1920 ng·h/mL
[2]; human, plasma, oral, 3 mg, 3 mg daily, dose 7, geometric mean, read-out: AUC0-last
  AUC(0-t): 2420 ng·h/mL
[2]; human, plasma, oral, 3 mg, 3 mg daily, dose 7, geometric mean, read-out: t½ (converted)
  half-life: 31.3 h
[2]; [19]
  AUC(0-inf): 7560 ng·h/mL
  Cmax: 153 ng/mL
[2]; human, plasma, oral, 3 mg, 3 mg daily, dose 14, geometric mean, read-out: AUC0-24
  AUC(0-t): 2770 ng·h/mL
[2]; human, plasma, oral, 3 mg, 3 mg daily, dose 14, geometric mean, read-out: AUC0-last
  AUC(0-t): 4510 ng·h/mL
[2]; human, plasma, oral, 3 mg, 3 mg daily, dose 14, geometric mean, read-out: t½ (converted)
  half-life: 36.5 h
[2]; [20]
  AUC(0-inf): 6130 ng·h/mL
  Cmax: 307 ng/mL
[2]; human, plasma, oral, 10 mg, 10 mg daily, dose 1, geometric mean, read-out: AUC0-24
  AUC(0-t): 3410 ng·h/mL
[2]; human, plasma, oral, 10 mg, 10 mg daily, dose 1, geometric mean, read-out: AUC0-last
  AUC(0-t): 3380 ng·h/mL
[2]; human, plasma, oral, 10 mg, 10 mg daily, dose 1, geometric mean, read-out: t½ (converted)
  half-life: 20.7 h
[2]; [21]
  AUC(0-inf): 17800 ng·h/mL
  Cmax: 505 ng/mL
[2]; human, plasma, oral, 10 mg, 10 mg daily, dose 7, geometric mean, read-out: AUC0-24
  AUC(0-t): 7730 ng·h/mL
[2]; human, plasma, oral, 10 mg, 10 mg daily, dose 7, geometric mean, read-out: AUC0-last
  AUC(0-t): 7820 ng·h/mL
[2]; human, plasma, oral, 10 mg, 10 mg daily, dose 7, geometric mean, read-out: t½ (converted)
  half-life: 28.7 h
[2]; [22]
  AUC(0-inf): 18600 ng·h/mL
  Cmax: 493 ng/mL
[2]; human, plasma, oral, 10 mg, 10 mg daily, dose 14, geometric mean, read-out: AUC0-24
  AUC(0-t): 7510 ng·h/mL
[2]; human, plasma, oral, 10 mg, 10 mg daily, dose 14, geometric mean, read-out: AUC0-last
  AUC(0-t): 11900 ng·h/mL
[2]; human, plasma, oral, 10 mg, 10 mg daily, dose 14, geometric mean, read-out: t½ (converted)
  half-life: 32.1 h
[2]; [23]
  AUC(0-inf): 22600 ng·h/mL
  Cmax: 869 ng/mL
[2]; human, plasma, oral, 30 mg, 30 mg daily, dose 1, geometric mean, read-out: AUC0-24
  AUC(0-t): 10600 ng·h/mL
[2]; human, plasma, oral, 30 mg, 30 mg daily, dose 1, geometric mean, read-out: AUC0-last
  AUC(0-t): 10400 ng·h/mL
[2]; human, plasma, oral, 30 mg, 30 mg daily, dose 1, geometric mean, read-out: t½ (converted)
  half-life: 26 h
[2]; [24]
  AUC(0-inf): 56800 ng·h/mL
  Cmax: 1600 ng/mL
[2]; human, plasma, oral, 30 mg, 30 mg daily, dose 7, geometric mean, read-out: AUC0-24
  AUC(0-t): 26500 ng·h/mL
[2]; human, plasma, oral, 30 mg, 30 mg daily, dose 7, geometric mean, read-out: AUC0-last
  AUC(0-t): 26300 ng·h/mL
[2]; human, plasma, oral, 30 mg, 30 mg daily, dose 7, geometric mean, read-out: t½ (converted)
  half-life: 25.7 h
[2]; [25]
  AUC(0-inf): 139000 ng·h/mL
  Cmax: 1500 ng/mL
[2]; human, plasma, oral, 30 mg, 30 mg daily, dose 14, geometric mean, read-out: AUC0-24
  AUC(0-t): 26200 ng·h/mL
[2]; human, plasma, oral, 30 mg, 30 mg daily, dose 14, geometric mean, read-out: AUC0-last
  AUC(0-t): 45000 ng·h/mL
[2]; human, plasma, oral, 30 mg, 30 mg daily, dose 14, geometric mean, read-out: t½ (converted)
  half-life: 75 h
[2]; [26]
  AUC(0-inf): 39300 ng·h/mL
  Cmax: 1950 ng/mL
[2]; human, plasma, oral, 60 mg, 60 mg daily, dose 1, geometric mean, read-out: AUC0-24
  AUC(0-t): 19600 ng·h/mL
[2]; human, plasma, oral, 60 mg, 60 mg daily, dose 1, geometric mean, read-out: AUC0-last
  AUC(0-t): 19200 ng·h/mL
[2]; human, plasma, oral, 60 mg, 60 mg daily, dose 1, geometric mean, read-out: t½ (converted)
  half-life: 25.1 h
[2]; [27]
  AUC(0-inf): 139000 ng·h/mL
  Cmax: 3190 ng/mL
[2]; human, plasma, oral, 60 mg, 60 mg daily, dose 7, geometric mean, read-out: AUC0-24
  AUC(0-t): 52100 ng·h/mL
[2]; human, plasma, oral, 60 mg, 60 mg daily, dose 7, geometric mean, read-out: AUC0-last
  AUC(0-t): 50300 ng·h/mL
[2]; human, plasma, oral, 60 mg, 60 mg daily, dose 7, geometric mean, read-out: t½ (converted)
  half-life: 35.8 h
[2]; [28]
  AUC(0-inf): 130000 ng·h/mL
  Cmax: 3070 ng/mL
[2]; human, plasma, oral, 60 mg, 60 mg daily, dose 14, geometric mean, read-out: AUC0-24
  AUC(0-t): 50900 ng·h/mL
[2]; human, plasma, oral, 60 mg, 60 mg daily, dose 14, geometric mean, read-out: AUC0-last
  AUC(0-t): 82000 ng·h/mL
[2]; human, plasma, oral, 60 mg, 60 mg daily, dose 14, geometric mean, read-out: t½ (converted)
  half-life: 32.9 h
[2]; human, plasma, oral, after the 1st dose, across dose levels, read-out: mean t1/2
  half-life: 20.7 to 27.9 h
[2]; human, plasma, oral, after the 7th dose, across dose levels, read-out: mean t1/2
  half-life: 25.7 to 35.8 h
[2]; human, plasma, oral, after the 14th dose, across dose levels, read-out: mean t1/2
  half-life: 32.1 to 75 h
[2]; once-daily dosing
  steady-state conditions: achieved by the 7th daily dose
[3]
  Mean plasma concentrations, 60 mg vs 10 mg: higher after the 60 mg dose than after the 10 mg dose
[4]
  effects on CNS (Neurocart) tests: no dose-dependent effects
